Reference: patent publication US11040035B2, “3-oxo-2,6-diphenyl-2,3-dihydropyridazine-4-carboxamides” (BAYER PHARMA AKTIENGESELLSCHAFT, priority 2016, dated 2021)

How the values were obtained:
AHR [1] = biological target: T1, AHR (Homo sapiens, UniProt P35869); test: In vitro assay 2: agonism in human cell line (transactivation assay)
T1 sequence (P35869 11-848): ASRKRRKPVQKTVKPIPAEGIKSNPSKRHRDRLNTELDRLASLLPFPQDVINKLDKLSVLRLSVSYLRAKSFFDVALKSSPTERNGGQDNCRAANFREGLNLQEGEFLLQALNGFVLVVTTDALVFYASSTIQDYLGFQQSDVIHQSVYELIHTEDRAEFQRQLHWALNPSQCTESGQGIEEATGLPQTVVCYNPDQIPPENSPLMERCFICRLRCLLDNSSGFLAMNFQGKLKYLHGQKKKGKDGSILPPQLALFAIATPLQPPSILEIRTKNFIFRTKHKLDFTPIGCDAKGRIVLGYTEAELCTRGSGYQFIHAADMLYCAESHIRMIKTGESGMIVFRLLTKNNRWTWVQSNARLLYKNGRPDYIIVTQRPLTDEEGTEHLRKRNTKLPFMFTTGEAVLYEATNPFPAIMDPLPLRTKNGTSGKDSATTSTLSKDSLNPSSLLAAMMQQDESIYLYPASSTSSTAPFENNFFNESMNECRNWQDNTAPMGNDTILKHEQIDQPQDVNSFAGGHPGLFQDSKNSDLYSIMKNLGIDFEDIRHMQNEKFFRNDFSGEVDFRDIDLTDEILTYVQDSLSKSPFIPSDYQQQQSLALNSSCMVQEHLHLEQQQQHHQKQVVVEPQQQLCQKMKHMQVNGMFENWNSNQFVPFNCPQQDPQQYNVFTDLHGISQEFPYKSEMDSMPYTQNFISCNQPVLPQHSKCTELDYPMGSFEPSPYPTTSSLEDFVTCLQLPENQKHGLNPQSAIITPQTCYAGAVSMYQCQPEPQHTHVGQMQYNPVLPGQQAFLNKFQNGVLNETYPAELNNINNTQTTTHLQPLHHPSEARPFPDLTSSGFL
Experimental: Transactivation Assay in Human Cell Line (In Vitro Assays 1 and 2)
Transactivation assays were carried out in U87 glioblastoma cells (ATCC) endogenously expressing AHR. In addition the cells were stably transfected with an AHR inducible firefly luciferase reporter gene construct that carried AHR-binding sites (DRE) in its promoter and a renilla reporter gene construct with constitutively active promoter.
In Vitro Assay 2: Agonism in Human Cell Line
Cells in medium (tryptophan free RPMI, 1% FCS, 2 mM Glutamine) were grown for 20 hours in absence (negative control) or presence of increasing concentrations of test compounds (typical dilutions: 72 pmol/L, 0.25 nmol/L, 0.89 nmol/L; 3.1 nmol/L, 11 nmol/L, 38 nmol/L, 130 nmol/L, 470 nmol/L, 1.6 μmol/L, 5.7 μmol/L and 20 μmol/L in duplicates). As positive activation control cells were incubated with 300 μM kynurenic acid. Normalization was done by positive and negative controls.
Firefly luciferase activity was determined by the SteadyGlo Luciferase Assay System (Promega, #2520).

AHR [2] = biological target: T1, AHR; test: In vitro assay 1: antagonism in human cell line (transactivation assay, kynurenic acid prestimulated); settings: Assay 1: AHR-luc Hum Antagonism IC50 [M], 150 μM kynurenic acid, 20 hours, firefly luciferase
[3] = Assay 2: AHR-luc Hum Agonism IC50 [M], no kynurenic acid, 20 hours, firefly luciferase
[4] = read-out: Assay 2: AHR-luc Hum Agonism IC50, no kynurenic acid, 20 hours, firefly luciferase

Row | IC50 (AHR [1]; [3]) | IC50 (AHR [2]) | IC50 (AHR [1]; [4]) | Compound
1 | > 2e-05 M | 8.85e-08 M | – | CC(C)C(O)CNC(=O)c1cc(-c2ccc(Cl)cc2)nn(-c2cccc(F)c2)c1=O (stereo not shown) [Example 28, 6-(4-Chlorophenyl)-2-(3-fluorophenyl)-N-(2-hydroxy-3-methylbutyl)-3-oxo-2,3-dihydropyridazine-4-carboxamide]
2 | – | 8.8e-08 M | > 2e-05 M | O=C(N[C@H]1COC[C@H]1O)c1cc(-c2ccc(Cl)cc2)nn(-c2cccc(F)c2)c1=O (single isomer, unassigned) [Example 385, 6-(4-chlorophenyl)-2-(3-fluorophenyl)-N-[cis-4-hydroxytetrahydrofuran-3-yl]-3-oxo-2,3-dihydropyridazine-4-carboxamide]
3 | > 2e-05 M | 4.37e-08 M | – | O=C(N[C@@H]1CCCC[C@@H]1O)c1cc(-c2ccc(OC(F)F)cc2)nn(-c2cccc(F)c2)c1=O (relative stereo) [Example 130, 6-[4-(Difluoromethoxy)phenyl]-2-(3-fluorophenyl)-N-(cis-2-hydroxycyclohexyl)-3-oxo-2,3-dihydropyridazine-4-carboxamide]
4 | > 2e-05 M | 1.56e-06 M | – | CN1CCC(O)(CNC(=O)c2cc(-c3ccc(Cl)cc3)nn(-c3cccc(F)c3)c2=O)CC1 [Example 234, 6-(4-Chlorophenyl)-2-(3-fluorophenyl)-N-[(4-hydroxy-1-methylpiperidin-4-yl)methyl]-3-oxo-2,3-dihydropyridazine-4-carboxamide]
5 | – | 4.51e-07 M | > 2e-05 M | O=C(N[C@H]1CCCC[C@@H]1O)c1cc(-c2ccc(Cl)cc2)nn(-c2cccc(F)c2)c1=O (single isomer, unassigned) [Example 119, 6-(4-Chlorophenyl)-2-(3-fluorophenyl)-N-(trans-2-hydroxycyclohexyl)-3-oxo-2,3-dihydropyridazine-4-carboxamide]
6 | > 2e-05 M | 1.81e-07 M | – | O=C(NCC(O)C(F)(F)F)c1cc(-c2ccc(Cl)c(F)c2)nn(-c2cccc(F)c2)c1=O (stereo not shown) [Example 282, 6-(4-chloro-3-fluorophenyl)-2-(3-fluorophenyl)-3-oxo-N-(3,3,3-trifluoro-2-hydroxypropyl)-2,3-dihydropyridazine-4-carboxamide]
7 | – | 8.39e-07 M | > 2e-05 M | O=C(NCC(O)C(F)(F)F)c1cc(-c2ccc(Cl)c(F)c2)nn(-c2cccc(F)c2)c1=O (single isomer, unassigned) [Example 284, 6-(4-chloro-3-fluorophenyl)-2-(3-fluorophenyl)-3-oxo-N-(3,3,3-trifluoro-2-hydroxypropyl)-2,3-dihydropyridazine-4-carboxamide]
8 | – | 1.22e-07 M | > 2e-05 M | Cc1ccc(-c2cc(C(=O)NCC(O)C(C)C)c(=O)n(-c3cccc(F)c3)n2)cc1 (single isomer, unassigned; enantiomer 2) [Example 12, 2-(3-Fluorophenyl)-N-(2-hydroxy-3-methylbutyl)-6-(4-methylphenyl)-3-oxo-2,3-dihydropyridazine-4-carboxamide, enantiomer 2]
9 | > 2e-05 M | 3.61e-08 M | – | Cc1ccc(-c2cc(C(=O)N[C@@H](C)CO)c(=O)n(-c3cccc(F)c3)n2)cc1 [Example 8, 2-(3-Fluorophenyl)-N-[(2S)-1-hydroxypropan-2-yl]-6-(4-methylphenyl)-3-oxo-2,3-dihydropyridazine-4-carboxamide]
10 | > 2e-05 M | 2.4e-08 M | – | O=C(N[C@H]1COC[C@H]1O)c1cc(-c2ccc(Cl)cc2)nn(-c2cccc(F)c2)c1=O (single isomer, unassigned) [Example 384, 6-(4-chlorophenyl)-2-(3-fluorophenyl)-N-[cis-4-hydroxytetrahydrofuran-3-yl]-3-oxo-2,3-dihydropyridazine-4-carboxamide]
11 | – | 1.86e-06 M | > 2e-05 M | Cc1cccc(-n2nc(-c3ccc(Cl)cc3)cc(C(=O)NCC(O)C(F)(F)F)c2=O)c1 (single isomer, unassigned) [Example 368, 6-(4-chlorophenyl)-2-(3-methylphenyl)-3-oxo-N-(3,3,3-trifluoro-2-hydroxypropyl)-2,3-dihydropyridazine-4-carboxamide]
12 | > 2e-05 M | 9e-08 M | – | CC(C)(O)CNC(=O)c1cc(-c2ccc(OC(F)(F)F)cc2)nn(-c2cccc(F)c2)c1=O [Example 382, 2-(3-fluorophenyl)-N-(2-hydroxy-2-methylpropyl)-3-oxo-6-[4-(trifluoromethoxy)phenyl]-2,3-dihydropyridazine-4-carboxamide]
13 | > 2e-05 M | 2.05e-07 M | – | CC(O)C(C)NC(=O)c1cc(-c2ccc(OC(F)F)cc2)nn(-c2cccc(F)c2)c1=O (stereo not shown) [Example 140, 6-[4-(Difluoromethoxy)phenyl]-2-(3-fluorophenyl)-N-(3-hydroxybutan-2-yl)-3-oxo-2,3-dihydropyridazine-4-carboxamide]
14 | > 2e-05 M | 6.5e-08 M | – | C[C@H](NC(=O)c1cc(-c2ccc(OC(F)F)cc2)nn(-c2cccc(F)c2)c1=O)C(C)(C)O [Example 386, 6-[4-(difluoromethoxy)phenyl]-2-(3-fluorophenyl)-N-[(2S)-3-hydroxy-3-methylbutan-2-yl]-3-oxo-2,3-dihydropyridazine-4-carboxamide]
15 | > 2e-05 M | 9.88e-08 M | – | C[C@H](CO)NC(=O)c1cc(-c2ccc(C(F)(F)F)cc2)nn(-c2cccc(F)c2)c1=O [Example 238, 2-(3-Fluorophenyl)-N-[(2R)-1-hydroxypropan-2-yl]-3-oxo-6-[4-(trifluoromethyl)phenyl]-2,3-dihydropryridazine-4-carboxamide]
16 | > 2e-05 M | 1.75e-07 M | – | Cc1ccc(-c2cc(C(=O)NCC(C)O)c(=O)n(-c3cccc(F)c3)n2)cc1 (single isomer, unassigned; enantiomer 1) [Example 14, 2-(3-Fluorophenyl)-N-(2-hydroxypropyl)-6-(4-methylphenyl)-3-oxo-2,3-dihydropyridazine-4-carboxamide, Enantiomer 1]
17 | > 2e-05 M | 5e-07 M | – | Cc1cccc(-n2nc(-c3ccc(Cl)cc3)cc(C(=O)NCC(O)C(F)(F)F)c2=O)c1 (single isomer, unassigned) [Example 367, 6-(4-chlorophenyl)-2-(3-methylphenyl)-3-oxo-N-(3,3,3-trifluoro-2-hydroxypropyl)-2,3-dihydropyridazine 4-carboxamide]
18 | > 2e-05 M | 1.19e-07 M | – | O=C(NCC(O)C1CCCC1)c1cc(-c2ccc(Cl)cc2)nn(-c2cccc(F)c2)c1=O (racemic) [Example 232, 6-(4-Chlorophenyl)-N-[(2RS)-2-cyclopentyl-2-hydroxyethyl]-2-(3-fluorophenyl)-3-oxo-2,3-dihydropyridazine-4-carboxamide]
19 | > 2e-05 M | 6.43e-06 M | – | O=C(N[C@@H](CO)Cc1ccccc1)c1cc(-c2ccc(C(F)(F)F)cc2)nn(-c2cccc(F)c2)c1=O [Example 252, 2-(3-Fluorophenyl)-N-[(2R)-1-hydroxy-3-phenylpropan-2-yl]-3-oxo-6-[4-(trifluoromethyl)phenyl]-2,3-dihydropyridazine-4-carboxamide]
20 | > 2e-05 M | 2.35e-07 M | – | O=C(NC(CO)C1CCOCC1)c1cc(-c2ccc(Cl)cc2)nn(-c2cccc(F)c2)c1=O (single isomer, unassigned) [Example 150, 6-(4-Chlorophenyl)-2-(3-fluorophenyl)-N-[2-hydroxy-1-(tetrahydro-2H-pyran-4-yl)ethyl]-3-oxo-2,3-dihydropyridazine-4-carboxamide]
